According to the NIST ThermoML archive (doi:10.1016/j.jct.2006.04.009):
± gives the expanded uncertainty stated by the source.

Conditions: Liquid

Compound	vapor or sublimation pressure (313.15 K) [kPa]	vapor or sublimation pressure (323.15 K) [kPa]	vapor or sublimation pressure (333.15 K) [kPa]	vapor or sublimation pressure (343.15 K) [kPa]	vapor or sublimation pressure (353.15 K) [kPa]	vapor or sublimation pressure (363.15 K) [kPa]
COC [dimethyl ether]	887 ± 10	1147 ± 13	1451 ± 17	1817 ± 21	2251 ± 26	2738 ± 32
FC(F)C(F)(F)F [pentafluoroethane]	2009 ± 24	2537 ± 30	3170 ± 37	–	–	–
